US20240360139A1, “BLOOD BRAIN BARRIER PENETRATING SELECTIVE INHIBITORS OF ROCK2 PROTEIN KINASES AND USES THEREOF” (GENOSCO Inc., priority 2023, published 2024)
Counter-ions that a name gives are not always drawn.

Tests used:
[1] = molecular target: T1, Recombinant ROCK1 (amino acids 1-477) (Homo sapiens, UniProt Q13464); assay: ROCK inhibition assay, LANCE Ultra TR-FRET (ROCK1); format: biochemical; settings: 1 mM of ATP
T1 construct: Recombinant ROCK1 (amino acids 1-477)
Description: (§1) Kinase IC50 was determined through an in vitro assay based on LANCE Ultra TR-FRET (Time-Resolved Fluorescence Resonance Energy Transfer) homogeneous technologies method 5 (Perkin Elmer). Recombinant ROCK1 (amino acids 1-477) and ROCK2 (amino acids 5-554) proteins were purchased from Carna Biosciences and SignalChem. Compound activities were measured by Envision and IC50s were calculated. The assays were performed in white LUMITRAC™ 200 96 well half-area microplates from Greiner Bio-One. The kinase reaction buffer consisted of 50 mM HEPES pH 7.5, 1 mM EGTA, 10 mM MgCl2, 2 mM DTT and 0.01% 10 Tween-20. Kinases were incubated with 50 nM (ULight-CREBtide) substrate in the presence of 1 mM (ROCK1) or 1 mM (ROCK2) of ATP. The kinase reaction was carried out for 1 hour before addition of a stopping buffer to a final of 10 mM EDTA and 0.6 nM of LANCE Ultra Europium anti-phospho-CREB (Ser133) antibody (PerkinElmer TRF0200) in LANCE detection buffer. All assay incubations were performed at room temperature, and the microplates were sealed with polyester film during that time. The reaction was incubated for 1 hour, and the signal was read in Envision in TR-FRET mode (excitation at 320 nm and emission at 615/665 nm).
(§2) As used herein, a way to describe potency of inhibitory activity (nM) is a value of inhibitory activity at 50% (IC50).

[2] = molecular target: T2, Recombinant ROCK2 (amino acids 5-554) (Homo sapiens, UniProt O75116); assay: ROCK inhibition assay, LANCE Ultra TR-FRET (ROCK2); format: biochemical; settings: 1 mM of ATP
T2 construct: ROCK2 (amino acids 5-554)
T2 sequence (O75116 5-554): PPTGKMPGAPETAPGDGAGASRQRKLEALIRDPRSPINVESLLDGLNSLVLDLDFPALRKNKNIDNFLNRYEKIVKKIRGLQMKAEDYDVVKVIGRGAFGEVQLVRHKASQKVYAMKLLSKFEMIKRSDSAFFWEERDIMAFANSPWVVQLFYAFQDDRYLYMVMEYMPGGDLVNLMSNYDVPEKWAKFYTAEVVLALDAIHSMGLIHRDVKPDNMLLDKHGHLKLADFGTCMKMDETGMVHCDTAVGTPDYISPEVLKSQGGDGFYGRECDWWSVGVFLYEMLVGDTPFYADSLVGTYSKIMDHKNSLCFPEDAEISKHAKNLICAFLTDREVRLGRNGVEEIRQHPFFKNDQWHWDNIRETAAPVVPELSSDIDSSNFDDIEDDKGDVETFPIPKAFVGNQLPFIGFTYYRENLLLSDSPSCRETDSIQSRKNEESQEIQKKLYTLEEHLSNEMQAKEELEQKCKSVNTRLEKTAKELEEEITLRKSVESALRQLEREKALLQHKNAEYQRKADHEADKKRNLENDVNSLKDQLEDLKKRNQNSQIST
Description: as §1, §2

T1 sequence (Q13464 1-477): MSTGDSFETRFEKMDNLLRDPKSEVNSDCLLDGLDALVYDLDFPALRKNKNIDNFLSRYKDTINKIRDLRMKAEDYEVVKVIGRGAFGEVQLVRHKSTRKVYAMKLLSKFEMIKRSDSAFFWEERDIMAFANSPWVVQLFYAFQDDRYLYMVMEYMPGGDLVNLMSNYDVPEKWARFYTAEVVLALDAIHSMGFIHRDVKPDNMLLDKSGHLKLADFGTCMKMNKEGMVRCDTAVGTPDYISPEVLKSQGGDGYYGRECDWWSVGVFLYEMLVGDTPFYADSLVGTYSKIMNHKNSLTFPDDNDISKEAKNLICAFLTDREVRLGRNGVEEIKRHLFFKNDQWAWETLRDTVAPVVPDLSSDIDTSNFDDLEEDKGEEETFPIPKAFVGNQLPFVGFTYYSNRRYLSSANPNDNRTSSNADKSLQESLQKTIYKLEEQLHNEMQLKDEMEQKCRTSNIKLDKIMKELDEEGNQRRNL

SMILES	IC50 [1] [nM]	IC50 [2] [nM]
COc1[nH]ncc1-c1cc2c(cn1)c(C(=O)C1COc3ccc(Cl)cc3C1)cn2CCN(C)C (stereo not drawn) [Compound 1-3, (6-chlorochroman-3-yl)(1-(2-(dimethylamino)ethyl)-6-(5-methoxy-1H-pyrazol-4-yl)-1H-pyrrolo[3,2-c]pyridin-3-yl)methanone dimethanesulfonic acid]	> 501	21 to 200
COc1ccc2c(c1)C[C@H](C(=O)c1cn(C[C@@H]3CCN3C)c3cc(-c4cn[nH]c4Cl)ncc13)CO2 [Compound 1-4]	> 501	< 20
COc1[nH]ncc1-c1ccc2c(C(=O)C3COc4ccc(Cl)cc4C3)cn(CCN(C)C)c2n1 (stereo not drawn) [Compound 1-8]	> 501	201 to 500
CN(C)CCn1cc(C(=O)C2COc3ccc(F)cc3C2)c2ccc(-c3c[nH]nc3Cl)nc21 (stereo not drawn) [Compound 1-10]	> 501	21 to 200
CN(C)CCn1cc(C(=O)C2COc3ccc(Cl)cc3C2)c2cnc(-c3c[nH]nc3Cl)cc21 (stereo not drawn) [Compound 1-11]	> 501	> 501
CN(C)CCn1cc(C(=O)C2COc3ccc(F)cc3C2)c2cnc(-c3c[nH]nc3Cl)cc21 (stereo not drawn) [Compound 1-12]	> 501	201 to 500
COc1ccc2c(c1)CC(C(=O)c1cn(CCN(C)C)c3nc(-c4c[nH]nc4Cl)ccc13)CO2 (stereo not drawn) [Compound 1-13]	> 501	< 20
COc1ccc2c(c1)CC(C(=O)c1cn(CCN(C)C)c3cc(-c4c[nH]nc4Cl)ncc13)CO2 (stereo not drawn) [Compound 1-14]	> 501	201 to 500
O=C(c1cn(C2CNC2)c2cc(-c3c[nH]nc3Cl)ncc12)C1COc2ccc(F)cc2C1 (stereo not drawn) [Compound 1-15]	> 501	21 to 200
CN(C)CCn1cc(C(=O)C2COc3ccc(Cl)cc3C2)c2ccc(-c3cn[nH]c3F)nc21 (stereo not drawn) [Compound 1-16]	> 501	> 501
CN(C)CCn1cc(C(=O)C2COc3ccc(Cl)cc3C2)c2ccc(-c3c[nH]nc3Cl)cc21 (stereo not drawn) [Compound 1-17]	> 501	21 to 200
COc1[nH]ncc1-c1ccc2c(C(=O)C3COc4ccc(Cl)cc4C3)cn(C3CNC3)c2c1 (stereo not drawn) [Compound 1-18]	> 501	21 to 200
COc1[nH]ncc1-c1ccc2c(C(=O)C3COc4ccc(Cl)cc4C3)cn(CC3CCCN3C)c2c1 (stereo not drawn) [Compound 1-19]	> 501	21 to 200
CN1CCCC1Cn1cc(C(=O)C2COc3ccc(Cl)cc3C2)c2ccc(-c3cn[nH]c3Cl)cc21 (stereo not drawn) [Compound 1-20]	> 501	> 501
CN(C)CCn1cc(C(=O)C2COc3ccc(F)cc3C2)c2ccc(-c3cn[nH]c3F)cc21 (stereo not drawn) [Compound 1-23]	> 501	21 to 200
CN(C)CCn1cc(C(=O)C2COc3ccc(Cl)cc3C2)c2ccc(-c3cn[nH]c3F)cc21 (stereo not drawn) [Compound 1-24]	> 501	21 to 200
COc1[nH]ncc1-c1ccc2c(C(=O)C3COc4ccc(Cl)cc4C3)cn(C[C@H]3CCCN3C)c2c1 (stereo partly drawn) [Compound 1-28]	> 501	> 501
O=C(c1cn(CC2CCN2)c2cc(-c3cn[nH]c3F)ccc12)C1COc2ccc(Cl)cc2C1 (stereo not drawn) [Compound 1-30]	> 501	< 20
O=C(c1cn(CC2CCN2)c2cc(-c3cn[nH]c3Cl)ccc12)C1COc2ccc(Cl)cc2C1 (stereo not drawn) [Compound 1-31]	> 501	21 to 200
COc1[nH]ncc1-c1ccc2c(C(=O)C3COc4ccc(Cl)cc4C3)cn(CC3CCN3)c2c1 (stereo not drawn) [Compound 1-32]	> 501	< 20
CN(C)CCn1cc(C(=O)C2COc3ccc(Cl)cc3C2)c2cnc(-c3cn[nH]c3Cl)nc21 (stereo not drawn) [Compound 1-33]	> 501	> 501
CN(C)CCn1cc(C(=O)C2COc3ccc(Cl)cc3C2)c2cnc(-c3cn[nH]c3F)nc21 (stereo not drawn) [Compound 1-34]	> 501	201 to 500
COc1ccc2c(c1)CC(C(=O)c1cn(C[C@@H]3CCN3)c3cc(-c4cn[nH]c4F)ccc13)CO2 (stereo partly drawn) [Compound 1-37]	> 501	< 20
O=C(c1cn(C[C@H]2CCN2)c2cc(-c3cn[nH]c3Cl)ccc12)C1COc2ccc(Cl)cc2C1 (stereo partly drawn) [Compound 1-39]	> 501	21 to 200
O=C(c1cn(C[C@H]2CCN2)c2cc(-c3cn[nH]c3F)ccc12)C1COc2ccc(Cl)cc2C1 (stereo partly drawn) [Compound 1-40]	> 501	< 20
COc1[nH]ncc1-c1ccc2c(C(=O)[C@@H]3COc4ccc(F)cc4C3)cn(CCN(C)C)c2c1 [Compound 5-39]	> 501	–

More lines, now with the values ahead:

IC50 [1] [nM]	IC50 [2] [nM]	SMILES
> 501	21 to 200	COc1[nH]ncc1-c1cc2c(cn1)c(C(=O)C1COc3ccc(Cl)cc3C1)cn2CCN(C)C (stereo not drawn) [Compound 1-1, (6-chlorochroman-3-yl)-[1-[2-(dimethylamino)ethyl]-6-(3-methoxy-1H-pyrazol-4-yl)pyrrolo[3,2-c]pyridin-3-yl]methanone]
> 501	21 to 200	COc1[nH]ncc1-c1cc2c(cn1)c(C(=O)C1COc3ccc(Cl)cc3C1)cn2CCN(C)C (stereo not drawn) [Compound 1-2, (6-chlorochroman-3-yl)(1-(2-(dimethylamino)ethyl)-6-(5-methoxy-1H-pyrazol-4-yl)-1H-pyrrolo[3,2-c]pyridin-3-yl)methanone dihydrochloride]
201 to 500	21 to 200	CN(C)CCn1cc(C(=O)C2COc3ccc(Cl)cc3C2)c2ccc(-c3c[nH]nc3Cl)nc21 (stereo not drawn) [Compound 1-9]
< 20	< 20	O=C(c1cn(CC2CNC2)c2cc(-c3cn[nH]c3Cl)ccc12)C1COc2ccc(Cl)cc2C1 (stereo not drawn) [Compound 1-21]
< 20	< 20	COc1[nH]ncc1-c1ccc2c(C(=O)C3COc4ccc(Cl)cc4C3)cn(CC3CNC3)c2c1 (stereo not drawn) [Compound 1-22]
201 to 500	21 to 200	CN(C)CCn1cc(C(=O)[C@@H]2COc3ccc(Cl)cc3C2)c2ccc(-c3cn[nH]c3F)cc21 [Compound 1-25]
201 to 500	< 20	CN(C)CCn1cc(C(=O)[C@@H]2COc3ccc(Cl)cc3C2)c2ccc(-c3cn[nH]c3F)cc21 [Compound 1-26]
201 to 500	201 to 500	CN1CCCC1Cn1cc(C(=O)C2COc3ccc(Cl)cc3C2)c2ccc(-c3cn[nH]c3F)cc21 (stereo not drawn) [Compound 1-27]
201 to 500	21 to 200	COc1[nH]ncc1-c1ccc2c(C(=O)C3COc4ccc(Cl)cc4C3)cn(C[C@@H]3CCCN3C)c2c1 (stereo partly drawn) [Compound 1-29]
21 to 200	< 20	COc1ccc2c(c1)CC(C(=O)c1cn(C[C@H]3CCN3)c3cc(-c4cn[nH]c4Cl)ccc13)CO2 (stereo partly drawn) [Compound 1-35]
201 to 500	< 20	COc1ccc2c(c1)CC(C(=O)c1cn(C[C@@H]3CCN3)c3cc(-c4cn[nH]c4Cl)ccc13)CO2 (stereo partly drawn) [Compound 1-36]
201 to 500	< 20	COc1ccc2c(c1)CC(C(=O)c1cn(C[C@H]3CCN3)c3cc(-c4cn[nH]c4F)ccc13)CO2 (stereo partly drawn) [Compound 1-38]
201 to 500	< 20	COc1ccc2c(c1)CC(C(=O)c1cn(C[C@@H]3CCN3)c3cc(-c4cn[nH]c4OC)ccc13)CO2 (stereo partly drawn) [Compound 1-41]
201 to 500	< 20	COc1ccc2c(c1)CC(C(=O)c1cn(C[C@H]3CCN3)c3cc(-c4cn[nH]c4OC)ccc13)CO2 (stereo partly drawn) [Compound 1-42]
21 to 200	< 20	CN1CC(Cn2cc(C(=O)C3COc4ccc(Cl)cc4C3)c3ccc(-c4cn[nH]c4F)cc32)C1 (stereo not drawn) [Compound 1-43]
